# Test results from ChEMBL document CHEMBL5291721, “A preclinical secondary pharmacology resource illuminates target-adverse drug reaction associations of marketed drugs” (Nat Commun, 2023).
# Key:
# [1] = target: T1, Alpha-2B adrenergic receptor (Homo sapiens, UniProt P18089)
# T1 sequence (P18089 whole entry): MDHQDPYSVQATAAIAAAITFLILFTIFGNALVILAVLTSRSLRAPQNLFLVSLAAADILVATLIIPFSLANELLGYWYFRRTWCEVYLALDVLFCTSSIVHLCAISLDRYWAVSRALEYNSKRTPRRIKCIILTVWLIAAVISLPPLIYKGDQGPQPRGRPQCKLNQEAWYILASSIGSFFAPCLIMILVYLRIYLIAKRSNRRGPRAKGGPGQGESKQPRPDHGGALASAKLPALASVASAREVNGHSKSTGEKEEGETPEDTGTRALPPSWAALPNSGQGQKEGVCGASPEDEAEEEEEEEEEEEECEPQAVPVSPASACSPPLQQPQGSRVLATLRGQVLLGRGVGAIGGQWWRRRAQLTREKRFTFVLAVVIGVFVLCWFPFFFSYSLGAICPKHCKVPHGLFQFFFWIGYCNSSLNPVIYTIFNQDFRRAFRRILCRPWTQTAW
# [2] = target: 5-hydroxytryptamine receptor 2B (Homo sapiens, UniProt P41595); format: functional, cell-based
# Sequence of 5-hydroxytryptamine receptor 2B (P41595 whole entry): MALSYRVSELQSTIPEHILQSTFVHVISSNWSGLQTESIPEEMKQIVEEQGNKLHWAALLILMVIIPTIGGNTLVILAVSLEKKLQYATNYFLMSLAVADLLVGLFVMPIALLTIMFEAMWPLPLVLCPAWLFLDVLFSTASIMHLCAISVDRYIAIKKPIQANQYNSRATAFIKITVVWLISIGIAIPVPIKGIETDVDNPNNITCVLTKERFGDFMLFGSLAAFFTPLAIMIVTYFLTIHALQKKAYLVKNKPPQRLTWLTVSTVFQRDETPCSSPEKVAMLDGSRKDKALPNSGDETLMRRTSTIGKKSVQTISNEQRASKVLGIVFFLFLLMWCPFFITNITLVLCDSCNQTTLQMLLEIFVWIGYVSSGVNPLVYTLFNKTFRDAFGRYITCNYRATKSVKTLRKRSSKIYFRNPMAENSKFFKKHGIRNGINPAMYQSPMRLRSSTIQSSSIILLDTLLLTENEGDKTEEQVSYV
# Melanocortin receptor 4 = Melanocortin receptor 4 (Homo sapiens, UniProt P32245)
# Sequence of Melanocortin receptor 4 (P32245 whole entry): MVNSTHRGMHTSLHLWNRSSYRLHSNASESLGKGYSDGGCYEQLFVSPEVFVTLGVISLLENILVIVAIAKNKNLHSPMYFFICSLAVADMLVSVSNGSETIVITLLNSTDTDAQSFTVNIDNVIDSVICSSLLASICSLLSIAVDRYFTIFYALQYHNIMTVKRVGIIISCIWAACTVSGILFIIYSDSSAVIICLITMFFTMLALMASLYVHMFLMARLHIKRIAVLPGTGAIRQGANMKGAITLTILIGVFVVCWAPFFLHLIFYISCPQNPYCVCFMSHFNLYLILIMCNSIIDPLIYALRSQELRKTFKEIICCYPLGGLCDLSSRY
# [3] = target: Kappa-type opioid receptor (Homo sapiens, UniProt P41145)
# Sequence of Kappa-type opioid receptor (P41145 whole entry): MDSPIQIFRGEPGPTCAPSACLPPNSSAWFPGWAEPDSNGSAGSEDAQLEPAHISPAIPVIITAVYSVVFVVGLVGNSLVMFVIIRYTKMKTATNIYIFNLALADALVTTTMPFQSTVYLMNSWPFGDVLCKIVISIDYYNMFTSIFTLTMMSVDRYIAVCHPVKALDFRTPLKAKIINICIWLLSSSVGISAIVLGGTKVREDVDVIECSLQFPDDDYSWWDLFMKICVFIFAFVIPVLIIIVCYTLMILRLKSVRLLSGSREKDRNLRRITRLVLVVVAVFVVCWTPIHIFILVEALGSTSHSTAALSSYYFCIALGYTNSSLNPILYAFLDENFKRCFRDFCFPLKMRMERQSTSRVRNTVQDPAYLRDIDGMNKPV
# [4] = target: Beta-2 adrenergic receptor (Homo sapiens, UniProt P07550)
# Sequence of Beta-2 adrenergic receptor (P07550 whole entry): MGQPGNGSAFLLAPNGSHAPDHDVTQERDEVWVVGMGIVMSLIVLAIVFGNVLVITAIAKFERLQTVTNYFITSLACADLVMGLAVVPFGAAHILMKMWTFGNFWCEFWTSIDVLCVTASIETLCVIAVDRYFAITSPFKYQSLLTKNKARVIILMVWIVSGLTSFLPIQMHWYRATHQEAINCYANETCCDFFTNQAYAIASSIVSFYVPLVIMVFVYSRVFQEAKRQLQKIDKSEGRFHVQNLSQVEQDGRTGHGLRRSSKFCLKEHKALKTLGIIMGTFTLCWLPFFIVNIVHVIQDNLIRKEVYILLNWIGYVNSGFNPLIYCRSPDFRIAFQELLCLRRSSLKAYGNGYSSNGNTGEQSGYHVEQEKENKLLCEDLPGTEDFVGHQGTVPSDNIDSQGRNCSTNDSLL
# Estrogen receptor = target: T2, Estrogen receptor (Homo sapiens, UniProt P03372)
# T2 sequence (P03372 whole entry): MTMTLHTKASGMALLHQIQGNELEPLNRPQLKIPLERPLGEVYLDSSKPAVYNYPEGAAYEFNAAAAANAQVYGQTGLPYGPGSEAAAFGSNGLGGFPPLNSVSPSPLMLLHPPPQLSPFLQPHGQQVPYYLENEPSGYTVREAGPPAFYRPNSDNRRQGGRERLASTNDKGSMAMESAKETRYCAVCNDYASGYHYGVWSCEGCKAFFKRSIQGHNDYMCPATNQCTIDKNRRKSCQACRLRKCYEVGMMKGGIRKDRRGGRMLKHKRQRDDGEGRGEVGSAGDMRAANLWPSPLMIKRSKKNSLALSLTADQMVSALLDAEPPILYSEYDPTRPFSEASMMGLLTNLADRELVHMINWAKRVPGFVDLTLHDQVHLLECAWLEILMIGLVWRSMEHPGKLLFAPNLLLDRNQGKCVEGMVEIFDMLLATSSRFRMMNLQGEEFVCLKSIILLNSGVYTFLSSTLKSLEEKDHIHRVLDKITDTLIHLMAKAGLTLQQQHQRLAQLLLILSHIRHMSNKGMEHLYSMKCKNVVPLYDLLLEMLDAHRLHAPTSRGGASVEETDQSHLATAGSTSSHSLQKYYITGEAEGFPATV
# Adenosine receptor A3 = target: T3, Adenosine receptor A3 (Homo sapiens, UniProt P0DMS8)
# T3 sequence (P0DMS8 whole entry): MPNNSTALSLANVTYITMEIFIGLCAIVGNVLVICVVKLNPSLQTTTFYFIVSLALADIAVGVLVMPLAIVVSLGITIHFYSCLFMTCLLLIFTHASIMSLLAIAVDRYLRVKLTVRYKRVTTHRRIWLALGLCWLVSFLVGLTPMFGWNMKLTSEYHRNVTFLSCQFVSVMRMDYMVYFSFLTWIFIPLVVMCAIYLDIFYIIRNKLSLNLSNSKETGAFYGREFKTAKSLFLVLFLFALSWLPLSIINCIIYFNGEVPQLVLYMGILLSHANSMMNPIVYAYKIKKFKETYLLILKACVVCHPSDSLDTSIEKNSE
# [5] = target: T4, Alpha-1A adrenergic receptor (Homo sapiens, UniProt P35348); format: functional, cell-based
# T4 sequence (P35348 whole entry): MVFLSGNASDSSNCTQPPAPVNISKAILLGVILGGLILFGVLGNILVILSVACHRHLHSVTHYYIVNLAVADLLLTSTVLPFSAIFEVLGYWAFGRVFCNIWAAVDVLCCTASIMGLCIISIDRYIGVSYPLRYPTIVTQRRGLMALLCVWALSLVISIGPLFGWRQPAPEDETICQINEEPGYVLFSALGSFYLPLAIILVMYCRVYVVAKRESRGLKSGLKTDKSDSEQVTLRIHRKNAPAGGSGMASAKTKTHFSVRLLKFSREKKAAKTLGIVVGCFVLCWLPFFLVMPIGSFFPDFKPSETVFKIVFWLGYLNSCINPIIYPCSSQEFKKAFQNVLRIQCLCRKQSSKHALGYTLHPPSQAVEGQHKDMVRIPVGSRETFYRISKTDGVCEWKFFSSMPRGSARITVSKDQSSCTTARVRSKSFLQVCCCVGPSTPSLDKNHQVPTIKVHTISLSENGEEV
# [6] = target: T4, Alpha-1A adrenergic receptor; format: functional, cell-based; remark: listed apart in the source
# [7] = target: cGMP-inhibited 3',5'-cyclic phosphodiesterase 3A (Homo sapiens, UniProt Q14432); format: functional
# Sequence of cGMP-inhibited 3',5'-cyclic phosphodiesterase 3A (Q14432 whole entry): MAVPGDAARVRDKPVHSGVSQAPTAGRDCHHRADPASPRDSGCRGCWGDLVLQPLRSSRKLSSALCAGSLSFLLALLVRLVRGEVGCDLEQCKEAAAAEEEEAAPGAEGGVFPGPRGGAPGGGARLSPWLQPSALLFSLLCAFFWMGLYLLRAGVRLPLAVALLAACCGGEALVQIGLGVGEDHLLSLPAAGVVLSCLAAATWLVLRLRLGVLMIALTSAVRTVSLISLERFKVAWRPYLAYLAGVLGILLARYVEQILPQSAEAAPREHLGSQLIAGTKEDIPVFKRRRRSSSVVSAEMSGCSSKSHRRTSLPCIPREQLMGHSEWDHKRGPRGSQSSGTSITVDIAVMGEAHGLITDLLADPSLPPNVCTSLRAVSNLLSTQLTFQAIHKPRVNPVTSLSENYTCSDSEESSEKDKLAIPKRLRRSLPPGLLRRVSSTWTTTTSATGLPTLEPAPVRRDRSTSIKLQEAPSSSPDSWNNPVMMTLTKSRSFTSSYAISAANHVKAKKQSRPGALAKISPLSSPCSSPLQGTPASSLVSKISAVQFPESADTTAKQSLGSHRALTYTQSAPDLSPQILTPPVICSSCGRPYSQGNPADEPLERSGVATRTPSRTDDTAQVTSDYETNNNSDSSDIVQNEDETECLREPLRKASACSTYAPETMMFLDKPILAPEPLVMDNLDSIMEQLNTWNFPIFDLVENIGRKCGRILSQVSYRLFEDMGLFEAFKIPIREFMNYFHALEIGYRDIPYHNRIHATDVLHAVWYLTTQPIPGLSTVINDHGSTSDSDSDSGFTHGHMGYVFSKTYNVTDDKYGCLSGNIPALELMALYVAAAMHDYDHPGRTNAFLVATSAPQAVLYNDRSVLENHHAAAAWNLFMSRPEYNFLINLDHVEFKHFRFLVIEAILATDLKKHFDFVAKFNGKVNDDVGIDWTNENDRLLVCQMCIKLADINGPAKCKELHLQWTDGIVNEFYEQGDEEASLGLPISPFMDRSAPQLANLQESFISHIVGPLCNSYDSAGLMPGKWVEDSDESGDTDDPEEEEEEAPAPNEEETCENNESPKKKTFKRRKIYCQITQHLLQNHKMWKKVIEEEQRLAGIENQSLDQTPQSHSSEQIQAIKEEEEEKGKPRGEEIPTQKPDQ
# [8] = target: Prostaglandin G/H synthase 1 (Homo sapiens, UniProt P23219); format: functional
# Sequence of Prostaglandin G/H synthase 1 (P23219 whole entry): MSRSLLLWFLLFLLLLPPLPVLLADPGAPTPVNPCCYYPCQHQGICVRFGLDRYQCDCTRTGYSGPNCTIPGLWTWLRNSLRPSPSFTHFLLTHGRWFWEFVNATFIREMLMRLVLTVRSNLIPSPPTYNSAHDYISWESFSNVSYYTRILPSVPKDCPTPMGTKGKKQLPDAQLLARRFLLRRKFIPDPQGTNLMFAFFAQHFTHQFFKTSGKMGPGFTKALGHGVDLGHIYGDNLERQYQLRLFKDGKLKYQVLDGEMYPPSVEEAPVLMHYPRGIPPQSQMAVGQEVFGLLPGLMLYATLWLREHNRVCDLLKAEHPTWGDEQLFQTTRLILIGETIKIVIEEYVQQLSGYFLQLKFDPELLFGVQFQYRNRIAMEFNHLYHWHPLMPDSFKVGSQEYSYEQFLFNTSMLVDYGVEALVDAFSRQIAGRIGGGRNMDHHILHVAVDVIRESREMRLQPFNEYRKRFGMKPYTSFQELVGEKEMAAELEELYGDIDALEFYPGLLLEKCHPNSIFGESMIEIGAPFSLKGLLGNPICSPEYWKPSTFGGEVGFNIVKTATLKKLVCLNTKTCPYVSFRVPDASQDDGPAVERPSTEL
# [9] = target: Sodium-dependent noradrenaline transporter (Homo sapiens, UniProt P23975)
# Sequence of Sodium-dependent noradrenaline transporter (P23975 whole entry): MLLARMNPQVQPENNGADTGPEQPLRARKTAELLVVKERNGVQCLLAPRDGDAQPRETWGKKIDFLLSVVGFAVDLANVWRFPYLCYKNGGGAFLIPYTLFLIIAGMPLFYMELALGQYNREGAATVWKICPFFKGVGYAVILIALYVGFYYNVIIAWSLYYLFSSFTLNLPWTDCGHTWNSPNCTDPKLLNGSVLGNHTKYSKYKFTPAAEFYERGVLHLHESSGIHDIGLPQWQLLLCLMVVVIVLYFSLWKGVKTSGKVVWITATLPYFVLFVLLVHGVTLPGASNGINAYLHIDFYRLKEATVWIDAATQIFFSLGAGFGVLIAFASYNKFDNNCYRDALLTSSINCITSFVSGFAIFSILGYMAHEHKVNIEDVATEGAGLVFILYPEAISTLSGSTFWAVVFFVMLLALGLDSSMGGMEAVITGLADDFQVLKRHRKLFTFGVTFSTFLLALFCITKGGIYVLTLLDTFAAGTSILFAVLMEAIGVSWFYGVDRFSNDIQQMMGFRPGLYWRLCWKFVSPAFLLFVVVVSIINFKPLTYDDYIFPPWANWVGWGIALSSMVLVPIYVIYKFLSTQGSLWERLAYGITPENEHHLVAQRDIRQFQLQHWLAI
# Thromboxane A2 receptor = target: T5, Thromboxane A2 receptor (Homo sapiens, UniProt P21731); format: functional, cell-based
# T5 sequence (P21731 whole entry): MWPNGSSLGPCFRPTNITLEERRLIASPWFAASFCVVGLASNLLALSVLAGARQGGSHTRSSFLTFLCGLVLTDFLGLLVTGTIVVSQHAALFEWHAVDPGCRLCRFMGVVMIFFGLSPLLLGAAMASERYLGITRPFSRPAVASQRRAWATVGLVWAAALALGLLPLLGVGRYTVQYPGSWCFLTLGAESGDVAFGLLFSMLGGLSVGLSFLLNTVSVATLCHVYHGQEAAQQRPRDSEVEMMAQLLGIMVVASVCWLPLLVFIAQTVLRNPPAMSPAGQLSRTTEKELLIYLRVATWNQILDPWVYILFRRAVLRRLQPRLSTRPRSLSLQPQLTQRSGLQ
# Also: assay procedure not described here.
SMILES,AC50 [1],AC50 [2],AC50 (Melanocortin receptor 4),AC50 [3],AC50 [4],AC50 (Estrogen receptor),AC50 (Adenosine receptor A3),AC50 [5],AC50 [6],AC50 [7],AC50 [8],AC50 [9],AC50 (Thromboxane A2 receptor)
Nc1ncn([C@H]2C[C@H](O)[C@@H](CO)O2)c(=O)n1 [DECITABINE],> 30 µM,> 30 µM,> 30 µM,> 30 µM,,,,,,,,,
[H]/N=C(/N)N/C(=N/[H])NCCc1ccccc1 [PHENFORMIN],15 µM,> 30 µM,> 30 µM,> 10 µM,> 10 µM,> 30 µM,,,,,,,
CCC(=O)O[C@]1(C(=O)SCF)[C@H](C)C[C@H]2[C@@H]3C[C@H](F)C4=CC(=O)C=C[C@]4(C)[C@@]3(F)[C@@H](O)C[C@@]21C [FLUTICASONE PROPIONATE],> 30 µM,> 30 µM,> 30 µM,> 30 µM,> 30 µM,,23.2 µM,> 30 µM,> 30 µM,> 30 µM,> 30 µM,> 30 µM,> 30 µM
CC12CC3CC(C)(C1)CC(N)(C3)C2 [MEMANTINE],> 10 µM,> 10 µM,> 30 µM,15.2 µM,> 10 µM,1.6 µM,,> 30 µM,,,,,
CC(C)COCC(CN(Cc1ccccc1)c1ccccc1)N1CCCC1 (stereo unspecified) [BEPRIDIL],6.2 µM,> 30 µM,15.4 µM,,> 30 µM,> 30 µM,,,,,,,
CC(C)(C)C(=O)OCC(=O)[C@H]1CC[C@H]2[C@@H]3CCC4=CC(=O)CC[C@]4(C)[C@H]3CC[C@]12C [DESOXYCORTICOSTERONE PIVALATE],> 10 µM,> 10 µM,> 10 µM,> 10 µM,> 10 µM,> 30 µM,,> 30 µM,,,,,
CCC1(c2ccccc2)CCC(=O)NC1=O (stereo unspecified) [GLUTETHIMIDE],> 10 µM,> 10 µM,> 10 µM,> 10 µM,> 10 µM,> 10 µM,,> 30 µM,,,,,
C[C@H](Cc1ccc(O)c(O)c1)[C@@H](C)Cc1ccc(O)c(O)c1 [MASOPROCOL],8.1 µM,> 10 µM,> 10 µM,15 µM,> 10 µM,0.749 µM,,> 30 µM,,,,,
CCC[C@H](NC(=O)[C@@H]1[C@H]2CCC[C@H]2CN1C(=O)[C@@H](NC(=O)[C@@H](NC(=O)c1cnccn1)C1CCCCC1)C(C)(C)C)C(=O)C(=O)NC1CC1,> 10 µM,,> 30 µM,> 10 µM,> 10 µM,> 30 µM,,,,,,,
CC1OC2(CS1)CN1CCC2CC1 (stereo unspecified) [CEVIMELINE],> 30 µM,> 10 µM,> 10 µM,> 10 µM,> 10 µM,> 10 µM,,> 30 µM,,,,,
OC1(c2ccc(Cl)cc2)c2ccccc2C2=NCCN21 (stereo unspecified) [MAZINDOL],> 30 µM,> 30 µM,> 30 µM,> 30 µM,> 30 µM,> 30 µM,,> 30 µM,,,,,
CC(C(=O)O)c1ccc(-c2ccccc2)c(F)c1 (stereo unspecified) [FLURBIPROFEN],,> 10 µM,> 10 µM,> 10 µM,> 10 µM,> 30 µM,> 30 µM,,> 30 µM,> 30 µM,,> 30 µM,> 30 µM
CCOC(=O)c1cncn1[C@H](C)c1ccccc1 [ETOMIDATE],> 10 µM,> 10 µM,> 10 µM,> 10 µM,> 10 µM,> 10 µM,,> 30 µM,,,,,
Clc1ccc(C(Cn2ccnc2)OCc2ccsc2Cl)c(Cl)c1 (stereo unspecified) [TIOCONAZOLE],> 30 µM,> 30 µM,> 30 µM,1.8 µM,10.6 µM,> 10 µM,,> 30 µM,,,,,
CCCC(CCC)C(N)=O [VALPROMIDE],> 10 µM,> 10 µM,> 30 µM,> 10 µM,> 10 µM,> 30 µM,,> 30 µM,,,,,
CN1CCN(C2=Nc3ccccc3Oc3ccc(Cl)cc32)CC1 [LOXAPINE],,,> 30 µM,8.24 µM,8.8 µM,> 30 µM,27.4 µM,> 30 µM,> 30 µM,> 30 µM,> 30 µM,0.482 µM,18.5 µM
CCCCC(=O)O[C@]1(C(=O)CO)[C@@H](C)C[C@H]2[C@@H]3CCC4=CC(=O)C=C[C@]4(C)[C@@]3(F)[C@@H](O)C[C@@]21C [BETAMETHASONE VALERATE],> 10 µM,> 10 µM,> 30 µM,> 10 µM,> 10 µM,> 30 µM,,> 30 µM,,,,,
Cc1cnc(C(=O)NCCc2ccc(S(=O)(=O)NC(=O)NC3CCCCC3)cc2)cn1 [GLIPIZIDE],,,> 30 µM,> 10 µM,> 10 µM,> 30 µM,,,14 µM,> 30 µM,,,> 30 µM
CN1CCC(=C2c3ccccc3CCc3cccnc32)CC1 [AZATADINE],> 10 µM,> 10 µM,> 30 µM,9.38 µM,> 10 µM,> 30 µM,,> 30 µM,,,,,
CC(C)[C@H](N)C(=O)OCC(CO)OCn1cnc2c(=O)nc(N)[nH]c21 (stereo partly specified) [VALGANCICLOVIR],> 30 µM,> 30 µM,> 30 µM,> 30 µM,> 30 µM,> 30 µM,,,,,,,
CCC(=O)O[C@H]1CC[C@H]2[C@@H]3CCC4=CC(=O)CC[C@]4(C)[C@H]3CC[C@]12C [TESTOSTERONE PROPIONATE],> 10 µM,> 10 µM,> 10 µM,7.71 µM,> 10 µM,> 30 µM,,> 30 µM,,,,,
CC(N)C(O)c1ccccc1 (stereo unspecified) [PHENYLPROPANOLAMINE],> 10 µM,> 10 µM,> 30 µM,> 10 µM,> 10 µM,,,> 30 µM,,,,,
